Source: US20050197350A1, “Novel quinoline, tetrahydroquinazoline, and pyrimidine derivatives and methods of treatment related to the use thereof” (TAISHO PHARMACEUTICAL CO., LTD., priority 2003, published 2005)

What follows are compounds tested on MCH receptors (assay: MCH receptor activity class (method not given)). Conditions: MCH receptor; class by percent of control at 10^-7 M or IC50.

Row | Structure (SMILES) | class
1 | CN(C)c1nc(N[C@H]2CC[C@@H](NC(=O)Nc3ccc(-c4ccccc4)cc3)CC2)nc2c1CCCC2 [compound 1898] | 3 (Class 3 The value of percent of control at 10^−7 M was more than 60% or the value of IC50 was more than 200 nM.)
2 | COc1ccc(Cl)cc1NC(=O)N[C@H]1CC[C@@H](Nc2nc3c(c(N(C)C)n2)CCCC3)CC1 [compound 1899] | 3 (Class 3 The value of percent of control at 10^−7 M was more than 60% or the value of IC50 was more than 200 nM.)
3 | Cc1ccc(Cl)cc1NC(=O)N[C@H]1CC[C@@H](Nc2nc3c(c(N(C)C)n2)CCCC3)CC1 [compound 1900] | 3 (Class 3 The value of percent of control at 10^−7 M was more than 60% or the value of IC50 was more than 200 nM.)
4 | CN(C)c1nc(N[C@H]2CC[C@@H](NC(=O)Nc3cc(Cl)ccc3[N+](=O)[O-])CC2)nc2c1CCCC2 [compound 1901] | 3 (Class 3 The value of percent of control at 10^−7 M was more than 60% or the value of IC50 was more than 200 nM.)
5 | Cc1ccc(F)cc1NC(=O)N[C@H]1CC[C@@H](Nc2nc3c(c(N(C)C)n2)CCCC3)CC1 [compound 1902] | 3 (Class 3 The value of percent of control at 10^−7 M was more than 60% or the value of IC50 was more than 200 nM.)
6 | CN(C)c1nc(N[C@H]2CC[C@@H](NC(=O)Nc3ccc4c(c3)CCC4)CC2)nc2c1CCCC2 [compound 1903] | 3 (Class 3 The value of percent of control at 10^−7 M was more than 60% or the value of IC50 was more than 200 nM.)
7 | CN(C)c1nc(N[C@H]2CC[C@@H](NC(=O)Nc3ccc4c(c3)Cc3ccccc3-4)CC2)nc2c1CCCC2 [compound 1904] | 3 (Class 3 The value of percent of control at 10^−7 M was more than 60% or the value of IC50 was more than 200 nM.)
8 | CN(C)c1nc(N[C@H]2CC[C@@H](NC(=O)NC3c4ccccc4-c4ccccc43)CC2)nc2c1CCCC2 [compound 1905] | 3 (Class 3 The value of percent of control at 10^−7 M was more than 60% or the value of IC50 was more than 200 nM.)
9 | CN(C)c1nc(N[C@H]2CC[C@@H](NC(=O)NCCc3ccccc3)CC2)nc2c1CCCC2 [compound 1906] | 3 (Class 3 The value of percent of control at 10^−7 M was more than 60% or the value of IC50 was more than 200 nM.)
10 | CN(C)c1nc(N[C@H]2CC[C@@H](NC(=O)NC3CCCC3)CC2)nc2c1CCCC2 [compound 1907] | 3 (Class 3 The value of percent of control at 10^−7 M was more than 60% or the value of IC50 was more than 200 nM.)
11 | COC(=O)c1ccc(NC(=O)N[C@H]2CC[C@@H](Nc3nc4c(c(N(C)C)n3)CCCC4)CC2)cc1 [compound 1908] | 3 (Class 3 The value of percent of control at 10^−7 M was more than 60% or the value of IC50 was more than 200 nM.)
12 | CN(C)c1nc(N[C@H]2CC[C@@H](NC(=O)Nc3ccccc3OC(F)(F)F)CC2)nc2c1CCCC2 [compound 1909, N-(cis-4-{[4-(dimethylamino)-5,6,7,8-tetrahydroquinazolin-2-yl]amino}cyclohexyl)-N′-[2-(trifluoromethoxy)phenyl]urea] | 2 (Class 2: The value of percent of control at 10^−7 M was from 40% to 60% or the value of IC′50 was from 50 nM to 200 nM.)
13 | CCCCOC(=O)c1ccccc1NC(=O)N[C@H]1CC[C@@H](Nc2nc3c(c(N(C)C)n2)CCCC3)CC1 [compound 1910] | 3 (Class 3 The value of percent of control at 10^−7 M was more than 60% or the value of IC50 was more than 200 nM.)
14 | COC(=O)c1cc(NC(=O)N[C@H]2CC[C@@H](Nc3nc4c(c(N(C)C)n3)CCCC4)CC2)cc(C(=O)OC)c1 [compound 1911] | 3 (Class 3 The value of percent of control at 10^−7 M was more than 60% or the value of IC50 was more than 200 nM.)
15 | CN(C)c1nc(N[C@H]2CC[C@@H](NC(=O)Nc3ccc(OC(F)(F)F)cc3)CC2)nc2c1CCCC2 [compound 1912] | 3 (Class 3 The value of percent of control at 10^−7 M was more than 60% or the value of IC50 was more than 200 nM.)
16 | CN(C)c1nc(N[C@H]2CC[C@@H](NC(=O)Nc3ccc4c(c3)C(F)(F)OC(F)(F)O4)CC2)nc2c1CCCC2 [compound 1913] | 3 (Class 3 The value of percent of control at 10^−7 M was more than 60% or the value of IC50 was more than 200 nM.)
17 | CN(C)c1nc(N[C@H]2CC[C@@H](NC(=O)NCCc3cccs3)CC2)nc2c1CCCC2 [compound 1914] | 3 (Class 3 The value of percent of control at 10^−7 M was more than 60% or the value of IC50 was more than 200 nM.)
18 | CN(C)c1nc(N[C@H]2CC[C@@H](NC(=O)Nc3ccccc3C#N)CC2)nc2c1CCCC2 [compound 1915] | 3 (Class 3 The value of percent of control at 10^−7 M was more than 60% or the value of IC50 was more than 200 nM.)
19 | CN(C)c1nc(N[C@H]2CC[C@@H](NC(=O)Nc3cccs3)CC2)nc2c1CCCC2 [compound 1916] | 3 (Class 3 The value of percent of control at 10^−7 M was more than 60% or the value of IC50 was more than 200 nM.)
20 | CN(C)c1nc(N[C@H]2CC[C@@H](NC(=O)Nc3ccsc3)CC2)nc2c1CCCC2 [compound 1917] | 3 (Class 3 The value of percent of control at 10^−7 M was more than 60% or the value of IC50 was more than 200 nM.)
21 | CN(C)c1nc(N[C@H]2CC[C@@H](NC(=O)Nc3ccc(C(C)(C)C)cc3)CC2)nc2c1CCCC2 [compound 1918] | 3 (Class 3 The value of percent of control at 10^−7 M was more than 60% or the value of IC50 was more than 200 nM.)

Row | Structure (SMILES) | class
22 | CN(C)c1nc(N[C@H]2CC[C@@H](NC(=O)Nc3ccc(-c4ccccc4)s3)CC2)nc2c1CCCC2 [compound 1919] | 3 (Class 3 The value of percent of control at 10^−7 M was more than 60% or the value of IC50 was more than 200 nM.)
23 | CN(C)c1nc(N[C@H]2CC[C@@H](NC(=O)Nc3cc(F)cc4c3OCOC4)CC2)nc2c1CCCC2 [compound 1920] | 3 (Class 3 The value of percent of control at 10^−7 M was more than 60% or the value of IC50 was more than 200 nM.)
24 | CN(C)c1nc(N[C@H]2CC[C@@H](NC(=O)NC3CCN(C(=O)OCc4ccccc4)CC3)CC2)nc2c1CCCC2 [compound 1921] | 3 (Class 3 The value of percent of control at 10^−7 M was more than 60% or the value of IC50 was more than 200 nM.)
25 | CN(C)c1ccc(NC(=O)N[C@H]2CC[C@@H](Nc3nc4c(c(N(C)C)n3)CCCC4)CC2)cc1 [compound 1922] | 3 (Class 3 The value of percent of control at 10^−7 M was more than 60% or the value of IC50 was more than 200 nM.)
26 | CN(C)c1nc(N[C@H]2CC[C@@H](NC(=O)Nc3cc(Cl)nc(Cl)c3)CC2)nc2c1CCCC2 [compound 1923] | 3 (Class 3 The value of percent of control at 10^−7 M was more than 60% or the value of IC50 was more than 200 nM.)
27 | Cc1noc(C)c1NC(=O)N[C@H]1CC[C@@H](Nc2nc3c(c(N(C)C)n2)CCCC3)CC1 [compound 1924] | 3 (Class 3 The value of percent of control at 10^−7 M was more than 60% or the value of IC50 was more than 200 nM.)
28 | CC(=O)c1cccc(NC(=S)N[C@H]2CC[C@@H](Nc3nc4c(c(N(C)C)n3)CCCC4)CC2)c1 [compound 1925] | 3 (Class 3 The value of percent of control at 10^−7 M was more than 60% or the value of IC50 was more than 200 nM.)
29 | CC(=O)c1ccc(NC(=S)N[C@H]2CC[C@@H](Nc3nc4c(c(N(C)C)n3)CCCC4)CC2)cc1 [compound 1926] | 3 (Class 3 The value of percent of control at 10^−7 M was more than 60% or the value of IC50 was more than 200 nM.)
30 | CN(C)c1nc(N[C@H]2CC[C@@H](NC(=S)Nc3cc(C(F)(F)F)cc(C(F)(F)F)c3)CC2)nc2c1CCCC2 [compound 1927] | 3 (Class 3 The value of percent of control at 10^−7 M was more than 60% or the value of IC50 was more than 200 nM.)
31 | CN(C)c1nc(N[C@H]2CC[C@@H](NC(=S)NCc3ccccc3)CC2)nc2c1CCCC2 [compound 1928] | 3 (Class 3 The value of percent of control at 10^−7 M was more than 60% or the value of IC50 was more than 200 nM.)
32 | CN(C)c1nc(N[C@H]2CC[C@@H](NC(=S)Nc3cccc(Br)c3)CC2)nc2c1CCCC2 [compound 1929] | 3 (Class 3 The value of percent of control at 10^−7 M was more than 60% or the value of IC50 was more than 200 nM.)
33 | CCCCNC(=S)N[C@H]1CC[C@@H](Nc2nc3c(c(N(C)C)n2)CCCC3)CC1 [compound 1930] | 3 (Class 3 The value of percent of control at 10^−7 M was more than 60% or the value of IC50 was more than 200 nM.)
34 | CN(C)c1nc(N[C@H]2CC[C@@H](NC(=S)NC3CCCCC3)CC2)nc2c1CCCC2 [compound 1931] | 3 (Class 3 The value of percent of control at 10^−7 M was more than 60% or the value of IC50 was more than 200 nM.)
35 | CN(C)c1nc(N[C@H]2CC[C@@H](NC(=S)NC3CCCC3)CC2)nc2c1CCCC2 [compound 1932] | 3 (Class 3 The value of percent of control at 10^−7 M was more than 60% or the value of IC50 was more than 200 nM.)
36 | CN(C)c1nc(N[C@H]2CC[C@@H](NC(=S)Nc3cccc(Cl)c3)CC2)nc2c1CCCC2 [compound 1933] | 3 (Class 3 The value of percent of control at 10^−7 M was more than 60% or the value of IC50 was more than 200 nM.)
37 | CN(C)c1nc(N[C@H]2CC[C@@H](NC(=S)Nc3ccc(Cl)cc3)CC2)nc2c1CCCC2 [compound 1934] | 3 (Class 3 The value of percent of control at 10^−7 M was more than 60% or the value of IC50 was more than 200 nM.)
38 | CN(C)c1nc(N[C@H]2CC[C@@H](NC(=S)Nc3cc(F)ccc3F)CC2)nc2c1CCCC2 [compound 1935] | 3 (Class 3 The value of percent of control at 10^−7 M was more than 60% or the value of IC50 was more than 200 nM.)
39 | CN(C)c1nc(N[C@H]2CC[C@@H](NC(=S)Nc3cc(Cl)ccc3Cl)CC2)nc2c1CCCC2 [compound 1936] | 3 (Class 3 The value of percent of control at 10^−7 M was more than 60% or the value of IC50 was more than 200 nM.)
40 | CN(C)c1nc(N[C@H]2CC[C@@H](NC(=S)Nc3ccc(Cl)c(Cl)c3)CC2)nc2c1CCCC2 [compound 1937] | 3 (Class 3 The value of percent of control at 10^−7 M was more than 60% or the value of IC50 was more than 200 nM.)
41 | CN(C)c1nc(N[C@H]2CC[C@@H](NC(=S)Nc3c(Cl)cccc3Cl)CC2)nc2c1CCCC2 [compound 1938] | 3 (Class 3 The value of percent of control at 10^−7 M was more than 60% or the value of IC50 was more than 200 nM.)
42 | CCOc1ccc(NC(=S)N[C@H]2CC[C@@H](Nc3nc4c(c(N(C)C)n3)CCCC4)CC2)cc1 [compound 1939] | 3 (Class 3 The value of percent of control at 10^−7 M was more than 60% or the value of IC50 was more than 200 nM.)
